# Reference: patent publication US8883790B2, “Pharmaceutical combinations” (Astex Therapeutics Limited, priority 2006, dated 2014)
# Structures can show the parent of a compound that is named as a salt.
# Tests used:
# [1] = Solubility of acid addition salts in a liquid carrier (e.g. water); settings: salts of 1-(2,6-difluorophenyl)-N-[3-(5-morpholin-4-ylmethyl-1H-benzimidazol-2-yl)-1H-pyrazol-4-yl]-urea
# [2] = Solid-state and dissolution properties of the L-lactate salt of the compound of formula (1) and its crystalline forms; format: physicochemical; settings: for stability of crystalline form: crystalline forms of the L-lactate salt of the compound of formula (1)
# Excerpt: The lactic acid salts of the compound of formula (1) exist in one unstable form (FL3) and two stable forms (FL1 and FL2).
# [3] = antitumour agent; cited from earlier work
# HCT116 cell line = test: Anti-proliferative activity, Alamar Blue assay; format: cell-based; settings: Homo sapiens, HCT-116, 72 h
# Protocol: The anti-proliferative activities of compounds for use in the combinations of the invention can be determined by measuring the ability of the compounds to inhibition of cell growth in a number of cell lines such as the human colon cancer cell line HCT116. […] The method is based on the ability of viable cells to reduce resazurin to its fluorescent product resorufin. […] The number of viable cells is determined by Alamar Blue assay as before. Cell lines can be obtained from the ECACC (European Collection of cell Cultures).
# [4] = biological target: T1, Human Hsp90a N-terminal domain (Homo sapiens, UniProt P07900); test: Isothermal titration calorimetry (ITC) binding to human Hsp90; settings: pH 7.4
# T1 construct: purification of the Human Hsp90a N-terminal domain; made in house
# Protocol: The ability of the compounds for use in the combinations of the invention to bind to human Hsp90 proteins was determined using isothermal titration calorimetry.
# Isothermal titration calorimetry (ITC) experiments were performed with a VP-ITC titration calorimeter (Microcal Inc., Northampton, Mass., USA). […] All solutions were filtered and degassed prior to a titration being carried out. The enthalpy change resulting from each injection of ligand was obtained through integration of the calorimetric signal. Data were analysed using Origin 7.0 (Microcal Software Inc., Northampton, Mass.). Heats of dilution were estimated using the final injections of each individual titration and subtracted before data fitting. Different ITC experimental formats were employed in order to obtain compound dissociation constants (Kd's) over a wide range of affinities. […] In this type of experiment the stoichiometry parameter (N) was locked at 1 for data fitting.
# [5] = format: physicochemical
# Excerpt: Samples for X-ray powder diffraction (XRPD) data collection were gently ground by marble mortar and loaded into a crystallographic capillary (from Hampton Research, Quartz or Glass Type 10, 0.4 or 0.7 mm diameter). Diffraction patterns were collected at room temperature using CuKa radiation (λ=1.5418 Å) from a Rigaku rotating anode RU3HR, Osmic blue confocal optics, ¼ c goniometer and a Rigaku HTC image plate detector. 2D Images were collected while spinning φ axis with a detector to crystal distance of 250 mm. Data collection was controlled by CrystalClear software and 2D images were converted to 1D plot (20 vs. Intensity) by Datasqueeze (intensity averaged over the azimuthal angle 0<χ<360° for 2θ range 3-30° in 0.02° steps). In house program AstexXRPD was used for manipulation and visualisation of 1D XRPD patterns.
# It is nominally a tri-hydrate because there are 3 crystal water positions in the asymmetric unit, but they are not 100% occupied at room temperature and laboratory humidity. A saturated solution of form FL1 in methanol:water 9:1 was prepared at room temperature. Slow precipitation with approximately 4 volumes of acetone gave form FL2 which is stable in air.
# A saturated solution of form FL1 in THF was prepared at room temperature. Slow precipitation with approximately 4 volumes of heptane gave form FL3.
# [6] = clinical studies; cited from earlier work
# PKG = settings: cited from earlier work
# PKC = settings: cited from earlier work
# OVCAR-3 tumour cells = OVCAR-3 tumour cells in which PKB is amplified; concentrations of 50 and 100 microM; cited from earlier work
# [7] = mice; doses 10 times more than were needed for antitumour activity; cited from earlier work
# [8] = system: Acute Promyelocytic Leukemia (APL); settings: APL patients; cited from earlier work
# [9] = Physicochemical properties of the crystalline lactate salt of compound (AA)
# [10] = system: P-glycoprotein-overexpressing subline of CCRF-CEM; settings: cited from earlier work
# tubulin = settings: relative to epothilone A or paclitaxel; cited from earlier work
# [11] = lactate (particularly L-lactate) salt of compound (AA)
compound,measurement,setting,value
"1-(2,6-difluorophenyl)-N-[3-(5-morpholin-4-ylmethyl-1H-benzimidazol-2-yl)-1H-pyrazol-4-yl]-urea [D-glucuronate]",solubility,[1],greater than 25 mg/ml
"CC(C)c1cc(C(=O)N2Cc3ccc(CN4CCN(C)CC4)cc3C2)c(O)cc1O [(2,4-dihydroxy-5-isopropyl-phenyl)-[5-(4-methyl-piperazin-1-ylmethyl)-1,3-dihydro-isoindol-2-yl]-methanone]",hygroscopicity,"[2]; L-lactate of (2,4-dihydroxy-5-isopropyl-phenyl)-[5-(4-methyl-piperazin-1-ylmethyl)-1,3-dihydro-isoindol-2-yl]-methanone",non-hygroscopic
same,rate of solubility,[2]; compared with free base and hydrochloric and sulphuric acid salts,better rate of solubility than the free base and other salts tested
CCN[C@H]1CO[C@@H](O[C@H]2[C@H](O[C@H]3C#C/C=C\C#C[C@]4(O)CC(=O)C(NC(=O)OC)=C3/C4=C\CSSSC)O[C@H](C)[C@@H](NO[C@H]3C[C@H](O)[C@H](SC(=O)c4c(C)c(I)c(O[C@@H]5O[C@@H](C)[C@H](O)[C@@H](OC)[C@H]5O)c(OC)c4OC)[C@@H](C)O3)[C@@H]2O)C[C@@H]1OC [Calicheamicin],potency relative to adriamycin,[3],"over 1,000 times"
"CC(C)c1cc(C(=O)N2Cc3ccccc3C2)c(O)cc1O [Example 5, (1,3-Dihydro-isoindol-2-yl)-(2,4-dihydroxy-5-isopropyl-phenyl)-methanone]",IC50,HCT116 cell line,< 1000 nM
"CC(C)c1cc(C(=O)N2Cc3ccc(C(=O)N4CCNCC4)cc3C2)c(O)cc1O [Example 54, (2,4-dihydroxy-5-isopropyl-phenyl)-[5-(piperazine-1-carbonyl)-1,3-dihydro-isoindol-2-yl]-methanone hydrochloride]",IC50,HCT116 cell line,< 1000 nM
"CC(C)c1cc(C(=O)N2Cc3ccc(CN4CCN(C)CC4)cc3C2)c(O)cc1O [Example 55, (2,4-dihydroxy-5-isopropyl-phenyl)-[5-(4-methyl-piperazin-1-ylmethyl)-1,3-dihydro-isoindol-2-yl]-methanone]",Kd,[4],< 100 nM
"CC(C)c1cc(C(=O)N2Cc3ccc(CN4CCN(C)CC4)cc3C2)c(O)cc1O [FL1, (2,4-dihydroxy-5-isopropyl-phenyl)-[5-(4-methyl-piperazin-1-ylmethyl)-1,3-dihydro-isoindol-2-yl]-methanone L-lactate]",stability of crystalline form,[2],stable
same,Stability of crystal form,[5],stable in air and at 40 °C and 75% RH for at least one month
"CC(C)c1cc(C(=O)N2Cc3ccc(CN4CCN(C)CC4)cc3C2)c(O)cc1O [FL2, (2,4-dihydroxy-5-isopropyl-phenyl)-[5-(4-methyl-piperazin-1-ylmethyl)-1,3-dihydro-isoindol-2-yl]-methanone L-lactate]",stability of crystalline form,[2],stable hydrate
same,Stability of crystal form,[5],stable in air
"CC(C)c1cc(C(=O)N2Cc3ccc(CN4CCN(C)CC4)cc3C2)c(O)cc1O [FL3, (2,4-dihydroxy-5-isopropyl-phenyl)-[5-(4-methyl-piperazin-1-ylmethyl)-1,3-dihydro-isoindol-2-yl-]-methanone L-lactate]",stability of crystalline form,[2],unstable
same,Stability of crystal form,[5],transforms in air into form FL1
same,Crystal form by XRPD after drying in air,[5]; sample dried in air for 2 days,conversion to form FL1 had occurred
"CCCCCCCCCCCCCCCCCCOP(=O)([O-])OC1CC[N+](C)(C)CC1 [KRX-0401, Perifosine]",half-life,[6],~100 h
O=S(=O)(NCCNCC=C(c1ccccc1)c1ccccc1)c1cccc2cnccc12 [NL-71-101],IC50,PKG,36000 nM
same,IC50,PKC,104000 nM
same,apoptosis induction,OVCAR-3 tumour cells,induced apoptosis
CCOC(=O)c1ccc2[nH]c3c(OC)c4[nH]c5ccc(C(=O)OCC)cc5c4cc3c2c1 [SR-13668],adverse effects,[7],no adverse effects
"CC1=C(/C=C/C(C)=C/C=C/C(C)=C/C(=O)O)C(C)(C)CCC1 [Tretinoin, all-trans retinoic acid]",remissions induced,[8],64-100%
"CC(C)c1cc(C(=O)N2Cc3ccc(CN4CCN(C)CC4)cc3C2)c(O)cc1O [crystalline lactate salt, (2,4-dihydroxy-5-isopropyl-phenyl)-[5-(4-methyl-piperazin-1-ylmethyl)-1,3-dihydro-isoindol-2-yl]-methanone]",hygroscopicity,[9]; lactate (particularly L-lactate) salt of 1-cyclopropyl-3-[3-(5-morpholin-4-ylmethyl-1H-benzoimidazol-2-yl)-1H-pyrazol-4-yl]-urea (compound (AA)),non-hygroscopic
same,solubility in water,[9]; [11],good solubility in water
same,storage stability,[9]; [11],stable to storage
C/C1=C/C[C@@H](/C(C)=C/c2csc(C)n2)OC(=O)C[C@H](O)C(C)(C)C(=O)[C@H](C)[C@@H](O)[C@@H](C)CCC1 [desoxyepothilone B],IC50,[10],17 nM
C/C(=C\c1csc(C)n1)[C@@H]1C[C@@H]2O[C@]2(C)CCC[C@H](C)[C@H](O)[C@@H](C)C(=O)C(C)(C)[C@@H](O)CC(=O)O1 [epothilone B],potency in inducing tubulin polymerization in vitro,tubulin,approximately twice as potent as epothilone A or paclitaxel
"CC(C)c1cc(C(=O)N2Cc3ccc(CN4CCN(C)CC4)cc3C2)c(O)cc1O [lactate salt, (2,4-dihydroxy-5-isopropyl-phenyl)-[5-(4-methyl-piperazin-1-ylmethyl)-1,3-dihydro-isoindol-2-yl]-methanone]",solid-state stability in conditions of high relative humidity,"[9]; lactate salt of compound (AA), gravimetric vapour sorption",stable anhydrous crystalline form
